# Test results: article PMC10683025, “Discovery of a Hydroxylamine-Based Brain-Penetrant EGFR Inhibitor for Metastatic Non-Small-Cell Lung Cancer” (Journal of Medicinal Chemistry, 2023)
# “Also recorded” adds a separate entry of the source. Where two headings read alike, the source gives them in different places.
# How the values were obtained:
# TA1537 = test system: TA1537; parameters: species or system Salmonella;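 on Count (# of wells): Revertant-positive wells among 48 replicate wells per concentration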
# Procedure: (§1) Compounds were assessed for mutagenicity at the Eurofins Panlabs in 384-well plates using four Salmonella strains: TA98, to probe for frameshift mutation (with quercetin as control), TA100 and TA1535, to probe for base pair insertions/deletions (with streptozotocin as control), and TA1537, to probe for frameshift mutations (with aminacridine as control) as previously described.[78] […] A concurrent bacterial cytotoxicity assay was run at 0.6, 1.2, 2.5, 5, 10, 25, 50, and 100 μM to rule out false negatives. Bacterial cytotoxicity was expressed as percent of control growth (OD650). Compounds with growth of less than 60% control were flagged and considered bacterial cytotoxic. […] Significances of the positive counts between the treatment and control were determined using a one-tailed Fisher’s exact test.
# TA98 = test system: TA98; parameters: species or system Salmonella;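 on Count (# of wells): Revertant-positive wells among 48 replicate wells per concentration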
# Procedure: as §1
# TA100 = test system: TA100; parameters: species or system Salmonella;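 on Count (# of wells): Revertant-positive wells among 48 replicate wells per concentration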
# Procedure: as §1
# ACVRL1 = molecular target: T1, ACVRL1 (Homo sapiens, UniProt P37023); experiment: KINOMEScan; type: binding; details: ACVRL1, 1 µM; read-out: Percent Control
# T1 construct: purchased Eurofins DiscoverX (KINOMEscan)
# T1 sequence (P37023 22-503): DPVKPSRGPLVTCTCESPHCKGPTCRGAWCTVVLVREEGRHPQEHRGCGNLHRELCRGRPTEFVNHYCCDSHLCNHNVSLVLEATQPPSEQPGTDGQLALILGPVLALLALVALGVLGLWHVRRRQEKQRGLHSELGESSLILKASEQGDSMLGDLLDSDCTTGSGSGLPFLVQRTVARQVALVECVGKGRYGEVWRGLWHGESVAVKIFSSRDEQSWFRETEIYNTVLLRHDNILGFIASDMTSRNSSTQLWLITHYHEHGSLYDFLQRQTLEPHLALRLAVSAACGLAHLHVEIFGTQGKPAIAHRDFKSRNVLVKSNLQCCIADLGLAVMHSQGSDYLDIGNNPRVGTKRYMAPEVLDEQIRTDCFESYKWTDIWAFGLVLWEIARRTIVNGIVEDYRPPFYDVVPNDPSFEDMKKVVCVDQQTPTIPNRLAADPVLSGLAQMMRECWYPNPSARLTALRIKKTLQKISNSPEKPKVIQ
# Description: (§2) Percent control was mapped onto the kinome tree using TREEspot.
# CYP2D6 [1] = molecular target: T2, CYP2D6 (Homo sapiens, UniProt P10635); experiment: CYP2D6 time-dependent inhibition in primary human hepatocytes; details: for Inhibition percentage(%) at Top conc.: human hepatocytes; for IC50 at 5 min: human, primary human hepatocytes, probe dextromethorphan (40 μM), O-demethylation
# T2 sequence (P10635 whole entry): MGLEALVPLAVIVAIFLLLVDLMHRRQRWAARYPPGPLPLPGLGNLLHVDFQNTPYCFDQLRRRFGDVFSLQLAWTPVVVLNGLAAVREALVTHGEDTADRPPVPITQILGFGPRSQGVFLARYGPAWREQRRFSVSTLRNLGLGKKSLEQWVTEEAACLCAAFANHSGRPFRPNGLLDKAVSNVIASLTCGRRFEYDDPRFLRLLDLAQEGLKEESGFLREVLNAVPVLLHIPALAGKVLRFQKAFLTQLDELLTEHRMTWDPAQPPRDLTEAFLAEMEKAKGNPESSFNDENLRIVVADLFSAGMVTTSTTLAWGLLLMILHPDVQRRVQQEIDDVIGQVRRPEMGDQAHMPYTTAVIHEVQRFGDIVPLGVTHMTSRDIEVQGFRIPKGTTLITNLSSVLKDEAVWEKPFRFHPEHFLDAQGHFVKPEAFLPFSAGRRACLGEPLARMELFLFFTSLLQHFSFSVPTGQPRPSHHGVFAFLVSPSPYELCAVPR
# BRK = molecular target: T3, BRK (Homo sapiens, UniProt Q13882); experiment: KINOMEScan; type: binding; details: read-out: Percent Control
# T3 construct: purchased Eurofins DiscoverX (KINOMEscan)
# T3 sequence (Q13882 whole entry): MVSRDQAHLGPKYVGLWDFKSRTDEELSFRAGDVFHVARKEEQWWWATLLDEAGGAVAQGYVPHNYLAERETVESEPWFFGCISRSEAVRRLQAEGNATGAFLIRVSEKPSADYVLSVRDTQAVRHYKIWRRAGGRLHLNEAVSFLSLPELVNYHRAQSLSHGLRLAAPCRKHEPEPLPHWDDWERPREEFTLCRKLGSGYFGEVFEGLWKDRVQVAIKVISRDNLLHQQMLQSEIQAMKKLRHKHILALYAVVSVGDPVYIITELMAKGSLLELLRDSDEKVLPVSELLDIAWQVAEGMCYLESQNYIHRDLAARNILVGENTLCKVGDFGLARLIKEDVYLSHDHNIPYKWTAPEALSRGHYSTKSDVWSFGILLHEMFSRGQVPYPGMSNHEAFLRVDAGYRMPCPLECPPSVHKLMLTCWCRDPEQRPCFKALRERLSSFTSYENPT
# Description: as §2
# BLK = molecular target: T4, BLK (Homo sapiens, UniProt P51451); experiment: KINOMEScan; type: binding; details: read-out: Percent Control
# T4 construct: purchased Eurofins DiscoverX (KINOMEscan)
# T4 sequence (P51451 whole entry): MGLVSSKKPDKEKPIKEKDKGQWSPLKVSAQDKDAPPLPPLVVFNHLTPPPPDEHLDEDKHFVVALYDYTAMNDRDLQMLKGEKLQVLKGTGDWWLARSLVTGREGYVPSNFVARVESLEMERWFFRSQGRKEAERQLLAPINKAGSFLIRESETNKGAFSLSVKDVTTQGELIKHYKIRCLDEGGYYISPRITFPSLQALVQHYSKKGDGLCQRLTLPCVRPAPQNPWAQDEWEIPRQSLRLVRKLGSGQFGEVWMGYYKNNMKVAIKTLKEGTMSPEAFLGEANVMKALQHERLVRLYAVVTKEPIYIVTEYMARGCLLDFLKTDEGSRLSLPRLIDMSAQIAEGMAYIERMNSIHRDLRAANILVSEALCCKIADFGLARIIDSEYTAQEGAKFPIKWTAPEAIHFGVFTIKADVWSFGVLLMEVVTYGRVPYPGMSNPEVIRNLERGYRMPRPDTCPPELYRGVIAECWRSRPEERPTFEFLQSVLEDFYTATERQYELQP
# Description: as §2
# ASK1 = molecular target: T5, ASK1 (Homo sapiens, UniProt Q99683); experiment: KINOMEScan; type: binding; details: ASK1, 1 µM; read-out: Percent Control
# T5 construct: purchased Eurofins DiscoverX (KINOMEscan)
# T5 sequence (Q99683 whole entry): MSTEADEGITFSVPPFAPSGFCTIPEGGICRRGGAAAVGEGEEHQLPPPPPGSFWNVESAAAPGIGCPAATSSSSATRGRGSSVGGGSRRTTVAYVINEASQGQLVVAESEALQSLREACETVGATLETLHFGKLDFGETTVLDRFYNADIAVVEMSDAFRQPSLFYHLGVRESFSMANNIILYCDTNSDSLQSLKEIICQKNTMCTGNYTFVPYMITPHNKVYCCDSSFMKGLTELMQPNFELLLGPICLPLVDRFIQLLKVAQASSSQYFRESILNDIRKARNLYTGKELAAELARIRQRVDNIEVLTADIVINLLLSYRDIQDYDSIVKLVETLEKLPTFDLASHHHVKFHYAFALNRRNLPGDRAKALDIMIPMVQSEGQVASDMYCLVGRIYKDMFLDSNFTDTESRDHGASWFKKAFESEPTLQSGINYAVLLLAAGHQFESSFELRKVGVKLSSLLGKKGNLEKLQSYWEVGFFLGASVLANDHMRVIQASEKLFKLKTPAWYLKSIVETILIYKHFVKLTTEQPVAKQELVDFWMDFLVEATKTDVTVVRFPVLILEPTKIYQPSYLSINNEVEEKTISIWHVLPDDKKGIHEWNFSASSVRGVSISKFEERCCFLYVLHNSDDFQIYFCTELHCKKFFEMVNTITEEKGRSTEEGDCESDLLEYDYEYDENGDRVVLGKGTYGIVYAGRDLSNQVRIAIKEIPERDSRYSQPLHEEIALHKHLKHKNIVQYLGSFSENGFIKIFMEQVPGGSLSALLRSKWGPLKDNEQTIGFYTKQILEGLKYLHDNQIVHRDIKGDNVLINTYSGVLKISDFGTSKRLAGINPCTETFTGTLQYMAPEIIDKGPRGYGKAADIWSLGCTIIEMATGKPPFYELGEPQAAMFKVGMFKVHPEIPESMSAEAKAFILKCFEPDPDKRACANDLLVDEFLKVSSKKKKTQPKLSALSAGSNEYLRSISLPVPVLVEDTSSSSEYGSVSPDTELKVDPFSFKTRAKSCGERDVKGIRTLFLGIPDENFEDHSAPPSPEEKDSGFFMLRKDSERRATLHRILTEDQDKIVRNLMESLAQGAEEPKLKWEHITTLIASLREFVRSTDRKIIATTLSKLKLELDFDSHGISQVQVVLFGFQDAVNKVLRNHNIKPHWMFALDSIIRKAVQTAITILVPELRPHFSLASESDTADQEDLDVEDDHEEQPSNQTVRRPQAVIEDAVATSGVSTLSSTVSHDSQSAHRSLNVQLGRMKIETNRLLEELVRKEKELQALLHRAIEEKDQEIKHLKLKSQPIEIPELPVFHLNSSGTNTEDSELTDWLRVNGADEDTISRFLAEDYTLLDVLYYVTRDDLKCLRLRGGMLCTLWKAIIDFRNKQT
# CYP2D6 [2] = molecular target: T2, CYP2D6; experiment: CYP2D6 time-dependent inhibition in human liver microsomes; details: for Inhibition percentage(%) at Top conc. / IC50: liver microsomes; for IC50: read-out: CYP2D6 IC50
# YANK3 = molecular target: T6, YANK3 (Homo sapiens, UniProt Q86UX6); experiment: KINOMEScan; type: binding; details: YANK3, 1 µM; read-out: Percent Control
# T6 construct: purchased Eurofins DiscoverX (KINOMEScan service)
# T6 sequence (Q86UX6 whole entry): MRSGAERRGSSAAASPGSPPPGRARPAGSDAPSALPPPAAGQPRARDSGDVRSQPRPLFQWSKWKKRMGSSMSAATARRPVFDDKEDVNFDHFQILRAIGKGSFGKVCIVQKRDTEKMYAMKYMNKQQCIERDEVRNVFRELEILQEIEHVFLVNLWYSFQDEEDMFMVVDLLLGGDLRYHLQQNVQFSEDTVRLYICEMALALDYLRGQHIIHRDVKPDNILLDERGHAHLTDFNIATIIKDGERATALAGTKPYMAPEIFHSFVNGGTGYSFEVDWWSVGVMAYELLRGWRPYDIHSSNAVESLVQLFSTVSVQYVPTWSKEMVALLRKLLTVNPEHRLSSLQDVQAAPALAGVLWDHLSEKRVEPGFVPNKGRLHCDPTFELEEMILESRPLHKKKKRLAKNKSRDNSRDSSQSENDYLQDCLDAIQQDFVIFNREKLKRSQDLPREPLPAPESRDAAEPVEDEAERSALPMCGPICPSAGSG
# [3] = CYP2D6 IC50, human hepatocytes, pre-incubation 30 min
compound,measurement,setting,value
"COc1cc2ncnc(Nc3cccc(Cl)c3F)c2cc1OCCON1CCN(C)CC1 [Compound 9, N-(3-Chloro-2-fluorophenyl)-7-methoxy-6-(2-((4-methylpiperazin-1-yl)oxy)ethoxy)quinazolin-4-amine]",Count (# of wells),"TA1537; TA1537+S9, 1.0E-04 M",1
same,Positive Significance (- to +++),"TA1537; TA1537+S9, 1.0E-04 M",-
same,Count (# of wells),"TA1537; TA1537+S9, 1.0E-05 M",5
same,Positive Significance (- to +++),"TA1537; TA1537+S9, 1.0E-05 M",-
same,Count (# of wells),"TA1537; TA1537+S9, 5.0E-05 M",4
same,Positive Significance (- to +++),"TA1537; TA1537+S9, 5.0E-05 M",-
same,Count (# of wells),"TA1537; TA1537+S9, 5.0E-06 M",3
same,Positive Significance (- to +++),"TA1537; TA1537+S9, 5.0E-06 M",-
same,Count (# of wells),"TA1537; TA1537-S9, 1.0E-04 M",0
same,Positive Significance (- to +++),"TA1537; TA1537-S9, 1.0E-04 M",-
same,Count (# of wells),"TA1537; TA1537-S9, 1.0E-05 M",0
same,Positive Significance (- to +++),"TA1537; TA1537-S9, 1.0E-05 M",-
same,Count (# of wells),"TA1537; TA1537-S9, 5.0E-05 M",0
same,Positive Significance (- to +++),"TA1537; TA1537-S9, 5.0E-05 M",-
same,Count (# of wells),"TA1537; TA1537-S9, 5.0E-06 M",1
same,Positive Significance (- to +++),"TA1537; TA1537-S9, 5.0E-06 M",-
same,Count (# of wells),"TA98; TA98+S9, 1.0E-04 M",0
same,Positive Significance (- to +++),"TA98; TA98+S9, 1.0E-04 M",-
same,Count (# of wells),"TA98; TA98+S9, 1.0E-05 M",2
same,Positive Significance (- to +++),"TA98; TA98+S9, 1.0E-05 M",-
same,Count (# of wells),"TA98; TA98+S9, 5.0E-05 M",1
same,Positive Significance (- to +++),"TA98; TA98+S9, 5.0E-05 M",-
same,Count (# of wells),"TA98; TA98+S9, 5.0E-06 M",0
same,Positive Significance (- to +++),"TA98; TA98+S9, 5.0E-06 M",-
same,Count (# of wells),"TA98; TA98-S9, 1.0E-04 M",0
same,Positive Significance (- to +++),"TA98; TA98-S9, 1.0E-04 M",-
same,Count (# of wells),"TA98; TA98-S9, 1.0E-05 M",0
same,Positive Significance (- to +++),"TA98; TA98-S9, 1.0E-05 M",-
same,Count (# of wells),"TA98; TA98-S9, 5.0E-05 M",2
same,Positive Significance (- to +++),"TA98; TA98-S9, 5.0E-05 M",-
same,Count (# of wells),"TA98; TA98-S9, 5.0E-06 M",0
same,Positive Significance (- to +++),"TA98; TA98-S9, 5.0E-06 M",-
same,Count (# of wells),"TA100; TA100+S9, 1.0E-04 M",0
same,Positive Significance (- to +++),"TA100; TA100+S9, 1.0E-04 M",-
same,Count (# of wells),"TA100; TA100+S9, 1.0E-05 M",3
same,Positive Significance (- to +++),"TA100; TA100+S9, 1.0E-05 M",-
same,Count (# of wells),"TA100; TA100+S9, 5.0E-05 M",0
same,Positive Significance (- to +++),"TA100; TA100+S9, 5.0E-05 M",-
same,Count (# of wells),"TA100; TA100+S9, 5.0E-06 M",3
same,Positive Significance (- to +++),"TA100; TA100+S9, 5.0E-06 M",-
same,Count (# of wells),"TA100; TA100-S9, 1.0E-04 M",0
same,Positive Significance (- to +++),"TA100; TA100-S9, 1.0E-04 M",-
same,Count (# of wells),"TA100; TA100-S9, 1.0E-05 M",4
same,Positive Significance (- to +++),"TA100; TA100-S9, 1.0E-05 M",-
same,Count (# of wells),"TA100; TA100-S9, 5.0E-05 M",0
same,Positive Significance (- to +++),"TA100; TA100-S9, 5.0E-05 M",-
same,Count (# of wells),"TA100; TA100-S9, 5.0E-06 M",1
same,Positive Significance (- to +++),"TA100; TA100-S9, 5.0E-06 M",-
same,remaining binding at 1 µM,ACVRL1,100%
same,IC50,CYP2D6 [1]; [3],4.75 µM
same,Inhibition percentage(%) at Top conc.,CYP2D6 [1]; 0 min,63.41%
same,Inhibition percentage(%) at Top conc.,CYP2D6 [1]; 30 min,66.54%
same,IC50 at 5 min,"CYP2D6 [1]; CYP2D6 IC50, human hepatocytes, pre-incubation 0 min",4.57 µM
same,IC50 at 5 min,CYP2D6 [1]; [3],4.73 µM
same,remaining binding at 1 µM,BRK,94%
same,remaining binding at 1 µM,BLK,16%
same,remaining binding at 1 µM,ASK1,100%
same,CYP 2D6 TDI,"CYP2D6 [2]; IC50-shift, human liver microsomes and primary human hepatocytes",Negative; also recorded: not to be time-dependent
same,Inhibition percentage(%) at Top conc.,CYP2D6 [2]; 0 min,78.15%
same,Inhibition percentage(%) at Top conc.,CYP2D6 [2]; 30 min with NADPH,74.73%
same,Inhibition percentage(%) at Top conc.,CYP2D6 [2]; 30 min without NADPH,78.78%
same,IC50,CYP2D6 [2]; 30 min with NADPH,1.82 µM
same,IC50,CYP2D6 [2]; 30 min without NADPH,1.16 µM
same,IC50,CYP2D6 [2]; pre-incubation 0 min,1.05 µM
same,remaining binding at 1 µM,YANK3,86%
